The values below come from patent US20220251036A1, “DIFLUOROHALOALLYLAMINE SULFONE DERIVATIVE INHIBITORS OF LYSYL OXIDASES, METHODS OF PREPARATION, AND USES THEREOF” (PHARMAXIS LTD., priority 2019, published 2022).

As a reminder, the pIC50 is the IC50 on a negative log10 scale, so that one unit is a factor of ten.

Holding throughout (type): biochemical
For one assay, the target named is T1, recombinant human MAO-A (Homo sapiens, UniProt P21397).
T1 construct: purchased Sigma Aldrich
T1 sequence (P21397 1-527): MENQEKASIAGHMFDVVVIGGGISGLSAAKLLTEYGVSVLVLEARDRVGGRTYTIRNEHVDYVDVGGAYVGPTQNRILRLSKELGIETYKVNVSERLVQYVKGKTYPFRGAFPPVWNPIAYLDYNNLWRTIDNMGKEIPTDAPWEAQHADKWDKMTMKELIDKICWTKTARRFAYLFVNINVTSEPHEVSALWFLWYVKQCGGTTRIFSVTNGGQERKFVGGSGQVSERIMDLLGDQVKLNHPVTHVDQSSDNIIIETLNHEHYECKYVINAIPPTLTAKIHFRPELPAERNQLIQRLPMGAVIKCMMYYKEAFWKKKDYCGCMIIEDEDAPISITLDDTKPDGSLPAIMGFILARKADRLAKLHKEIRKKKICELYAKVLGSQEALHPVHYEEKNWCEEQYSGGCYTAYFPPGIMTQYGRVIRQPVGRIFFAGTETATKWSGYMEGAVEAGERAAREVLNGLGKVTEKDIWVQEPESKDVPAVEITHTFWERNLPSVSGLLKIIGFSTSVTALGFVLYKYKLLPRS
Put plainly: MAO-A inhibition. The note with it: 2 hours incubation, tyramine 100 μM. The protocol:
The specificity of the compounds of this invention was tested by determining their ability to inhibit MAO-A activity in vitro, using recombinant human MAO-A (0.003 mg/mL; Sigma Aldrich). The assay was performed in a similar way as for human SSAO/VAP-1 (Example 8) except, the incubation with the test compounds was extended to 2 hours, and the substrate tyramine was used at 100 μM in place of benzylamine.

Another assay has as its target T2, recombinant human MAO-B (Homo sapiens, UniProt P27338).
T2 construct: purchased Sigma Aldrich
T2 sequence (P27338 1-520): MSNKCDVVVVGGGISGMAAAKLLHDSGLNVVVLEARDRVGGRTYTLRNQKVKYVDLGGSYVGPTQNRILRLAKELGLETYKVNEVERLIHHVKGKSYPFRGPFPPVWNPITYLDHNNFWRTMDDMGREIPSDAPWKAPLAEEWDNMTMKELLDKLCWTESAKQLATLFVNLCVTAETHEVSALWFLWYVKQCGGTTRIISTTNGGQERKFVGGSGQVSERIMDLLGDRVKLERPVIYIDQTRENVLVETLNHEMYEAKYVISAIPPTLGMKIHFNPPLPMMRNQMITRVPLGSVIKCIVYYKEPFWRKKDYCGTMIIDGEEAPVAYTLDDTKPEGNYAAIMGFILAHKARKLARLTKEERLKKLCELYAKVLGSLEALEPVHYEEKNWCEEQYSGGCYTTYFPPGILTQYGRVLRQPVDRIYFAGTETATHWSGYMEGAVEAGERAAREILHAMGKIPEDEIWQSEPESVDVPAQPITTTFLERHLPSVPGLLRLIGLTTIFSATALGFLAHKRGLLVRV
Kind of assay: MAO-B inhibition. The note with it: benzylamine 100 μM. How it is done: The specificity of the compounds of this invention was tested by determining their ability to inhibit MAO-B activity in vitro using recombinant human MAO-B (0.02 mg/mL; Sigma Aldrich). The assay was performed in a similar way as for human SSAO/VAP-1 (Example 8) except, the substrate benzylamine was used at 100 μM.

In assay [1] the target is T3, Human recombinant SSAO/VAP-1 (Homo sapiens, UniProt Q16853).
T3 construct: residues 34-763 of human SSAO/VAP-1; TEV cleavage site (N); made in house
T3 sequence (Q16853 34-763): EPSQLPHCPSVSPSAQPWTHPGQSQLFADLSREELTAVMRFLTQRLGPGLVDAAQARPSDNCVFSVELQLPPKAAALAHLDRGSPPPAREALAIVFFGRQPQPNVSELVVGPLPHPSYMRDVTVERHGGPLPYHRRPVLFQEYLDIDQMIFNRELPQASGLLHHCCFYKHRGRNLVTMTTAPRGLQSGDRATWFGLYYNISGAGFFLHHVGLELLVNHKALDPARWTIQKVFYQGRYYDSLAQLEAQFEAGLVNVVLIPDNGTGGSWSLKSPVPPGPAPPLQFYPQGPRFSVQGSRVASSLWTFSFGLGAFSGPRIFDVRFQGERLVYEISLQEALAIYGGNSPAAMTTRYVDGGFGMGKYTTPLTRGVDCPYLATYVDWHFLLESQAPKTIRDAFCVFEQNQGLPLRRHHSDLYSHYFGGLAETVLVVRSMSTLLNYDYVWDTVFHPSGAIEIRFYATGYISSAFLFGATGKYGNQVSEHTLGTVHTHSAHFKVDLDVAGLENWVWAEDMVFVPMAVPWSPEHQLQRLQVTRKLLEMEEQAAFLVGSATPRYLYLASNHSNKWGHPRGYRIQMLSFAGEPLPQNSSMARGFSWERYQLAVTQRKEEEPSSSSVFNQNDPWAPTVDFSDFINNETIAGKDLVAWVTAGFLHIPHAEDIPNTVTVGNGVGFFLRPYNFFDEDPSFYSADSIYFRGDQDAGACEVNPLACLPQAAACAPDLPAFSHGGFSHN
Put plainly: SSAO/VAP-1 inhibition. The settings on record: 30 min incubation at 37° C, benzylamine 600 μM. The protocol:
Human recombinant SSAO/VAP-1 amine oxidase activity was determined using the coupled colorimetric method as described for monoamine oxidase, copper-containing amine oxidases and related enzymes (Holt A. and Palcic M., A peroxidase-coupled continuous absorbance plate-reader assay for flavin monoamine oxidases, copper-containing amine oxidases and related enzymes. Nat Protoc 2006; 1: 2498-2505). Briefly, a cloned cDNA template corresponding to residues 34-763 of human SSAO/VAP-1, and incorporating a mouse Ig kappa (κ) signal sequence, N-terminal flag epitope tag and tobacco etch virus (TEV) cleavage site, was assembled in a mammalian expression vector (pLO-CMV) by Geneart AG. This vector containing human SSAO/VAP-1 residues was transfected into CHO-K1 glycosylation mutant cell line, Lee 8. A clone stably expressing human SSAO/VAP-1 was isolated and cultured in large scale. Active human SSAO/VAP-1 was purified and recovered using immunoaffinity chromatography. This was used as the source for SSAO/VAP-1 activity. A high-throughput fluorescent assay was developed using either 96 or 384 well format. Briefly, in a standard 96 well plate assay 50 μL of purified human SSAO/VAP-1 (0.25 μg/mL) in 0.1 M sodium phophate buffer (pH 7.4) was added into each well. Test compounds were dissolved in DMSO and tested in a Concentration Response Curve (CRC) with 4-11 data points, typically in the micromolar or nanomolar range after incubation with human SSAO/VAP-1 for 30 min at 37° C. After 30 min incubation, 50 μL of the reaction mixture containing 600 μM benzylamine (Sigma Aldrich), 120 μM Amplex Red (Sigma Aldrich) and 1.5 U/mL horseradish peroxidase (Sigma Aldrich) prepared in 0.1 M sodium phosphate buffer (pH 7.4) were added to the corresponding well. The fluorescence unit (RFU) was read every 2.5 min for 30 min at 37° C. excitation 565 nm and emission 590 (Optima; BMG labtech). The slope of the kinetics for each well was calculated using MARS data analysis software (BMG labtech) and this value was used to deduce the IC50 value (Dotmatics).

The structures appear in SMILES notation. pIC50: −log10 of the molar value. Some results are limits rather than exact numbers.

On to `N#CCCN` [BAPN, β-aminopropionitrile, reference compound], for which the pIC50 (on recombinant human MAO-A; on recombinant human MAO-B; in assay [1]) was under 4.52 throughout.

Turning to `CNc1ccccc1S(=O)(=O)C(F)(F)/C(F)=C/CN` [Compound 4, (Z)-2-((4-amino-1,1,2-trifluorobut-2-en-yl)sulfony1)-N-methylaniline], the negative logarithm of the IC50 (pIC50) on recombinant human MAO-A was 4.57; at recombinant human MAO-B, at most 4.52; in assay [1] it was 4.74.

As to `Cc1ccccc1S(=O)(=O)C(F)(F)/C(F)=C/CN` [Compound 5, (Z)-3,4,4-trifluoro-4-(o-tolylsulfonyl)but-2-en-1-amine], the results for the negative logarithm of the IC50 (pIC50) (on recombinant human MAO-A; at recombinant human MAO-B; in assay [1]) were 4.69, under 4.52 and under 4.52, respectively.

With `Cc1ccc(S(=O)(=O)C(F)(F)/C(F)=C/CN)cc1` [Compound 6, (Z)-3,4,4-trifluoro-4-tosylbut-2-en-1-amine], the negative-log IC50 (pIC50) (on recombinant human MAO-A; on recombinant human MAO-B; in assay [1]) was under 4.52 each time.

For `NC/C=C(\F)C(F)(F)S(=O)(=O)Cc1ccccc1` [Compound 8, (Z)-4-(benzylsulfony1)-3,4,4-trifluorobut-2-en-1-amine], the pIC50 (at recombinant human MAO-A; at recombinant human MAO-B; in assay [1]) was under 4.52 in each case.

Take `CS(=O)(=O)c1ccc(COc2ccccc2S(=O)(=O)C(F)(F)/C(F)=C/CN)cc1` [Compound 10, (Z)-3,4,4-trifluoro-4-((2-((4-(methylsulfonyl)benzyl)oxy)phenyl)sulfonyl) but-2-en-1-amine]: the pIC50 at recombinant human MAO-A was 5.33; at recombinant human MAO-B, under 4.52; in assay [1], 4.83.

As for `NC/C=C(\F)C(F)(F)S(=O)(=O)c1cccs1` [Compound 14, (Z)-3,4,4-trifluoro-4-(thiophen-2-ylsulfonyl)but-2-en-1-amine], the pIC50 in assay [1] was 4.58.
